A word on the EC50: it is the concentration needed to bring the measured effect to its halfway point. A word on the AC50: it is the midpoint of the concentration-response curve, whichever way the signal moves. One may read the CC50 as the concentration at which the toxic effect on the cells reaches its halfway point.

Consider 25 molecules from ChEMBL document CHEMBL1201862, “PubChem BioAssay data set” (2004).

Active and inactive are the calls of the source.

In experiment [1] the target is Voltage-dependent T-type calcium channel subunit alpha-1H (Homo sapiens, UniProt O95180). It counts as functional.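 Also: channel activity triggered by adding a high calcium stimulation buffer.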
Chain of Voltage-dependent T-type calcium channel subunit alpha-1H (O95180 whole entry): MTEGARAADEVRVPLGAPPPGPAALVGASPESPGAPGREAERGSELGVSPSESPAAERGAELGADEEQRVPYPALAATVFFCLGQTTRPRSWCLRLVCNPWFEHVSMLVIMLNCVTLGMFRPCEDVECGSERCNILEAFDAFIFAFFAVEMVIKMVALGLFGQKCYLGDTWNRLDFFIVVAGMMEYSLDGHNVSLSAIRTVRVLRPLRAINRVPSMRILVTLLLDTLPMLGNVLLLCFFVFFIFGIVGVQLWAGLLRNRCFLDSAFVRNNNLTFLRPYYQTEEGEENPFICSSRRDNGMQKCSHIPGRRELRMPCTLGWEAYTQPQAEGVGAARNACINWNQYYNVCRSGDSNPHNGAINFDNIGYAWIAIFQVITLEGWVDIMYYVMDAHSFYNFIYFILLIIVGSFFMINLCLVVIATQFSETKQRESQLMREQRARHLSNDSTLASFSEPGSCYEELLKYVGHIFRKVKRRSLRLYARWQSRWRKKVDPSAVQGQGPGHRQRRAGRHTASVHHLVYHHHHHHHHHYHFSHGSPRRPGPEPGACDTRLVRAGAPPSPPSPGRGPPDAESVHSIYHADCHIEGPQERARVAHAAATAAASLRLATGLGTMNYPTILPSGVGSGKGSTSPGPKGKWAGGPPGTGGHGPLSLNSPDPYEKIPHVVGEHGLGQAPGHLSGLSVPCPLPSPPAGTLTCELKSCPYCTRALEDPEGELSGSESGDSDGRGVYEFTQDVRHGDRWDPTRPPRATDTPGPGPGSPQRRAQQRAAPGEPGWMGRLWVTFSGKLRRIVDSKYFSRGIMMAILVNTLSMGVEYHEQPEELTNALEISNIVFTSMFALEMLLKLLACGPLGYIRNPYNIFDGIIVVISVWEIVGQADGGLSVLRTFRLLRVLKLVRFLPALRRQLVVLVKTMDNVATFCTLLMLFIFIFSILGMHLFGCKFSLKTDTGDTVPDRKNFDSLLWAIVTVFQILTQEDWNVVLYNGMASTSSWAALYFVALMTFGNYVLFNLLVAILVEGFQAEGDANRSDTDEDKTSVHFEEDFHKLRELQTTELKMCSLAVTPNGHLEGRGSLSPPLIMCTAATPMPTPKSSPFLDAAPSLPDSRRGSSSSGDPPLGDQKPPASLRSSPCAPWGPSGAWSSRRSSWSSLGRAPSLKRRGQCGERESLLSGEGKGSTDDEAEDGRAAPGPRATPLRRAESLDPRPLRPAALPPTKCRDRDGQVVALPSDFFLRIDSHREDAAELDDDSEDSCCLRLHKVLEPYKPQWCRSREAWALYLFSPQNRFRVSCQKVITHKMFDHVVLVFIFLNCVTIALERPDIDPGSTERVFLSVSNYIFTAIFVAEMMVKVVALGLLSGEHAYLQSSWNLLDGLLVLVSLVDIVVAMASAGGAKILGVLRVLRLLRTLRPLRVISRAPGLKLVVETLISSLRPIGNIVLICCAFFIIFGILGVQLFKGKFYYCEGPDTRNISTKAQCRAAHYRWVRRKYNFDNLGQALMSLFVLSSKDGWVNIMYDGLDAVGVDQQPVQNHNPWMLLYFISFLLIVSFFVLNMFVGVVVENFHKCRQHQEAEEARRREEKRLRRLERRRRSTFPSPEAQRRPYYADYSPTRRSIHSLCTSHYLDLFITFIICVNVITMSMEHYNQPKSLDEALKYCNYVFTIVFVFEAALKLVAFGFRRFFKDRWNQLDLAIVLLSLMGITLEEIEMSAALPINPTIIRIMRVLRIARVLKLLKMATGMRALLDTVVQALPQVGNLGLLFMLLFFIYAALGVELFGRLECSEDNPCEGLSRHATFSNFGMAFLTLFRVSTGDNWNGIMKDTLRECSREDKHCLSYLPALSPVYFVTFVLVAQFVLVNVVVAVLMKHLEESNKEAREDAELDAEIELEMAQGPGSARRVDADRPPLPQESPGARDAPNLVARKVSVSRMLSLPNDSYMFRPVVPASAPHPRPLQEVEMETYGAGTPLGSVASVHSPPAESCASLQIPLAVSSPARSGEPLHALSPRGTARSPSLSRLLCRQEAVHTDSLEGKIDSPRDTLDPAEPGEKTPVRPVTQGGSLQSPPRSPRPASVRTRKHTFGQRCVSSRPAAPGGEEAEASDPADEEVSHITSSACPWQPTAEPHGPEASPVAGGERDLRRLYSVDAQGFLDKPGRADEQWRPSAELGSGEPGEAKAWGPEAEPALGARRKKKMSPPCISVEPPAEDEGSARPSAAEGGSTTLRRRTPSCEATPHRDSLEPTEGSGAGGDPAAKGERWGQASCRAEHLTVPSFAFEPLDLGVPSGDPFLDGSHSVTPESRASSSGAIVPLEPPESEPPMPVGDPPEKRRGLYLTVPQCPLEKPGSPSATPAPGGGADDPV
Experiment [2] can be described thus: HEK-293T cell viability reduction – luminescence, B-cell screen hits, cytotoxicity control for BCR NF-kB inhibitor project, dose response (AID 489021).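 Also: HEK-293T cells carrying an NF-kB luciferase reporter; cells exposed to compound for about 14 hours before viability readout.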 The class given is functional, cell-based.
Experiment [3] addresses T1, Voltage-gated N-type calcium channel alpha-1B subunit/Amyloid beta A4 precursor protein-binding family A member 1 (Homo sapiens, UniProt Q00975+Q02410). It counts as protein assay.
Experiment [4] has as its target T1, Voltage-gated N-type calcium channel alpha-1B subunit/Amyloid beta A4 precursor protein-binding family A member 1. It counts as protein assay. This is another data set of the same source.
The target in another experiment is T2, Leucine aminopeptidase (Plasmodium falciparum 3D7, UniProt Q8IL11).
T2 sequence (Q8IL11 whole entry): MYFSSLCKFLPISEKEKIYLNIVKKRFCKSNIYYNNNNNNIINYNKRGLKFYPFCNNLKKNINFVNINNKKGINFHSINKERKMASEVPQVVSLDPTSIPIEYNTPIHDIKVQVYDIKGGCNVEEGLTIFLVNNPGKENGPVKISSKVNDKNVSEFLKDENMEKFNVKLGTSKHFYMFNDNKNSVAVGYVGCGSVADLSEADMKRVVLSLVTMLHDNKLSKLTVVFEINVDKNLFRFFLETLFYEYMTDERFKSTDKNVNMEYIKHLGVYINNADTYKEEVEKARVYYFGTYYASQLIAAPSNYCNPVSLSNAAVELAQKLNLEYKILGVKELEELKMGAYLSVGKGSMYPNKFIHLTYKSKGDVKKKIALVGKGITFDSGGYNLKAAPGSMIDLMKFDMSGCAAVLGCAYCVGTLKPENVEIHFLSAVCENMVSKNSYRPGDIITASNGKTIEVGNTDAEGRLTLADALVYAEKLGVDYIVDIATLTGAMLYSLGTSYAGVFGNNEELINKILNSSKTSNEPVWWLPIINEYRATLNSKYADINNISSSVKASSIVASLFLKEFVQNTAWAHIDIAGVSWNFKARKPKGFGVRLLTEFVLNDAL
The experiment can be described thus: P. falciparum M17LAP inhibitors, primary screen, biochemical, fluorogenic H-Leu-NHMec substrate, 1536-well (AID 1619). It counts as functional.

The next experiment concerns the target Genome polyprotein (dengue virus type 2, UniProt P29990). The experiment can be described thus: flavivirus cap methylation enzyme inhibition – biochemical, confirmation dose response, primary screen (AID 588689). The class given is functional.
Another experiment in a line: cells. The class given is functional.
For experiment [5], the target named is T3, Histone-lysine N-methyltransferase NSD2 (Homo sapiens, UniProt O96028).
T3 sequence (O96028 whole entry): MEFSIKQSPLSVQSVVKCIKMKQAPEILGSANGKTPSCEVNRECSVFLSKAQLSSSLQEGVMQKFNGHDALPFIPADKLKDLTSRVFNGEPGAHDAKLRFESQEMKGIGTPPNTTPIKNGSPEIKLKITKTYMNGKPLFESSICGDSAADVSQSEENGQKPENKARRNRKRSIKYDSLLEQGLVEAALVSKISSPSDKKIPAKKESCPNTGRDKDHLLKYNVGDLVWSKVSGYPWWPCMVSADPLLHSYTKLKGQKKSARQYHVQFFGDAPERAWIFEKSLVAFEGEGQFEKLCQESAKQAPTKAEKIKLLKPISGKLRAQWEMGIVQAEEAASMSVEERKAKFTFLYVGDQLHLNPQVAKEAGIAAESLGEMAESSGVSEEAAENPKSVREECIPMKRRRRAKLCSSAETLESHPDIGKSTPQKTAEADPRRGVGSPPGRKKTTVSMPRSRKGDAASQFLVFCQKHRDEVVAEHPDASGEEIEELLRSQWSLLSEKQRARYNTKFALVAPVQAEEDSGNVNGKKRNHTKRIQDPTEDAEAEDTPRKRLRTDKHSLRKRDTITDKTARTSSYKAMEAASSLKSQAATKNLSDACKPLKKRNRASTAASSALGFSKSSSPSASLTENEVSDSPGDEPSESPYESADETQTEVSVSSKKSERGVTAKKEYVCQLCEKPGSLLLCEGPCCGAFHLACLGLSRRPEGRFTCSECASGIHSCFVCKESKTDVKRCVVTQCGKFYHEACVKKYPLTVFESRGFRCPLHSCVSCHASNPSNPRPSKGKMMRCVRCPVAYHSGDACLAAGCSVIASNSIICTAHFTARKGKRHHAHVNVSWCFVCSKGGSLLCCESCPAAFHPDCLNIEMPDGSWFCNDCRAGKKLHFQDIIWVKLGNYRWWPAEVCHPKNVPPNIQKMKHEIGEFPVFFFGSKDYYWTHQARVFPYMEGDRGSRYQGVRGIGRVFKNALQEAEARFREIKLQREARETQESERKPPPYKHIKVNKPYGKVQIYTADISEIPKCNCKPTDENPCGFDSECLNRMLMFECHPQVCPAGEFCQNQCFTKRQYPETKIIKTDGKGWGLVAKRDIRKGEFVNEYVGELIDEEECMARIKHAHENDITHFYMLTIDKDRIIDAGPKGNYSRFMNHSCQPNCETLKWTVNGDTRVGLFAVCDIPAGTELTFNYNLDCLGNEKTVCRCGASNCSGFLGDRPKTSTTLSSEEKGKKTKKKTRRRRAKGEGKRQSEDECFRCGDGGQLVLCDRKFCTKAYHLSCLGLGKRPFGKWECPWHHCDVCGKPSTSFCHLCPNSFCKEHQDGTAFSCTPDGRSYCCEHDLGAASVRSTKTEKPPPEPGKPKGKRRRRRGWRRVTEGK
It counts as biochemical.

The nature of experiment [6]: HEK-293T viability loss after treatment – luminescence, T-cell screen hits, cytotoxicity control for TCR NF-kB inhibitor project, dose response (AID 489026).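 Also: cells exposed to compound about 14 hours before the viability readout.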 It counts as functional, cell-based.
Experiment [7] is described as follows: Luminescence Cell-Based Dose Response HTS to Identify Inhibitors of 5'UTR Stem-Loop Driven Prion Protein mRNA Translation in H4 Neuroglioblastoma Cells. [Related pubchem assays: 1827 (Project Summary), 1813 (Primary HTS)]. The class given is functional.
Experiment [8] can be described thus: luciferase reporter signal suppression in cells – H4 neuroglioma cells, luminescence, dose response (AID 1990). The class given is functional, cell-based. For orientation: Reporter assays use an easily measured gene product as a stand-in for the process of interest.
A short description of experiment [9]: alpha-synuclein stem-loop luciferase translation blockers – H4 neuroglioma cells, luminescence, confirmation (AID 1988). It counts as functional, cell-based.
A short description of experiment [10]: viability loss in THP-1 monocytes – THP-1 cells, cytotoxicity control for Vif-APOBEC3G degradation inhibitor project, dose response (AID 1117359). It counts as functional. The note with it: THP-1.
The target of experiment [11] is T4, RNA-binding protein pos-1 (Caenorhabditis elegans, UniProt G5EF15).
T4 sequence (G5EF15 whole entry): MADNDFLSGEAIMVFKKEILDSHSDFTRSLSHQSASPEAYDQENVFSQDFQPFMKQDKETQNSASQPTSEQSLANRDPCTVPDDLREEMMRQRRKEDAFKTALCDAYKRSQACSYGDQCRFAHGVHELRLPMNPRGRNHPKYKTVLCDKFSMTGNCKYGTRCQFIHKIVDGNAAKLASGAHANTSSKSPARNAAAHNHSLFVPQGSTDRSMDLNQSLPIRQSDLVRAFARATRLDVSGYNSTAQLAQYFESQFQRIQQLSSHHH
The experiment can be described thus: disruptors of C. elegans POS-1 RNA interaction – biochemical, fluorescence polarization, dose response (AID 1964).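 Also: purified POS-1 fused to maltose binding protein made in E. coli; potency of compounds blocking POS-1 binding to fluorescent RNA.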 Background: Polarisation of emitted light reports the rotation of a fluorescent probe.

Experiment [12] deals with T5, Polyadenylate-binding protein 1 (Homo sapiens, UniProt P11940). The experiment can be described thus: MLLE domain peptide-binding blockers, IC50 – biochemical, fluorescence polarization, FITC-PAM2 peptide, dose response (AID 602259). It counts as functional. As to conditions: read-out: IC50_Mean.
T5 sequence (P11940 whole entry, the tested form may be a part): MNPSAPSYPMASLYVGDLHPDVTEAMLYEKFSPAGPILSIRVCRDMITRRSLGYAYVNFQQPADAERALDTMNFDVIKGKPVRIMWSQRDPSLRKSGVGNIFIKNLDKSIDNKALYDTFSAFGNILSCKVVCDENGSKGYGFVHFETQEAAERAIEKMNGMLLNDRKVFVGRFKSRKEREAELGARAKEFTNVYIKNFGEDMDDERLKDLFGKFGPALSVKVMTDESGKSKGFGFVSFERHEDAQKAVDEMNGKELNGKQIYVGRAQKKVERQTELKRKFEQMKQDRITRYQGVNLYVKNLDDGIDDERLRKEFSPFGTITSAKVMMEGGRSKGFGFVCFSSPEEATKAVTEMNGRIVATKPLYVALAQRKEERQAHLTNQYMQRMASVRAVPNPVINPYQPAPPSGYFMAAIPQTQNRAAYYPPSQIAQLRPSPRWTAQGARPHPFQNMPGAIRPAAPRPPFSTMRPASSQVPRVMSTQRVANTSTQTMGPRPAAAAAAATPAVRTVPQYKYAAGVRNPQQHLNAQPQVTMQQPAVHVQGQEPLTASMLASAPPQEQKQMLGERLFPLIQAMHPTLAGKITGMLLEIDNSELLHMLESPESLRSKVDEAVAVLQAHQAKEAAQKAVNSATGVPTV
Experiment [13] has as its target T6, Zinc finger protein mex-5 (Caenorhabditis elegans, UniProt Q9XUB2).
T6 sequence (Q9XUB2 whole entry): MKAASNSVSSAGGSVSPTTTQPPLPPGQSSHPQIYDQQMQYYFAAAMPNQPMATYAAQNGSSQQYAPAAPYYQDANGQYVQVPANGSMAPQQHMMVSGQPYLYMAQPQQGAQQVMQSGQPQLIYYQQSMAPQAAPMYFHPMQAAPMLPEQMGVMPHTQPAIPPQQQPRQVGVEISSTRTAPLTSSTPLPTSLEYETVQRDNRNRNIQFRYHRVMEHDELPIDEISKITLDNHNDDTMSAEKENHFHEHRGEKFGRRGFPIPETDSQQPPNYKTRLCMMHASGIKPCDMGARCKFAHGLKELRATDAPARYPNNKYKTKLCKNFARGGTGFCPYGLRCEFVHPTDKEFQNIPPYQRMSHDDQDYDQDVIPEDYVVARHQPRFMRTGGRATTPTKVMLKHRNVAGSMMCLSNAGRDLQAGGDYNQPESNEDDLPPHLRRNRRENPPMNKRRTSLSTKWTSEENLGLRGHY
The experiment can be described thus: potency of MEX-5 RNA-binding blockers – biochemical, C. elegans, fluorescence polarization, dose response (AID 1960).

Experiment [14] has as its target T5, Polyadenylate-binding protein 1. The experiment can be described thus: MLLE binding blockers, Cy5 peptide tracer – biochemical, fluorescence polarization, Cy5-PAM2 peptide, secondary, miRNA deadenylation inhibitor project, dose response (AID 602260). The class given is functional. As to conditions: read-out: IC50_Mean.
Experiment [15] concerns the target FAD-linked sulfhydryl oxidase ALR (Homo sapiens, UniProt P55789). The experiment can be described thus: ALR-catalysed DTT oxidation blockers – biochemical, H2O2 detection, luminescence, cherry-pick, dose response (AID 493248).
The target in another experiment is Large T antigen (Simian virus 40, UniProt P03070). It counts as functional, Betapolyomavirus macacae.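 Also: Confirmatory-stage PubChem screen for compounds that inhibit SV40 T antigen.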
Chain of Large T antigen (P03070 whole entry): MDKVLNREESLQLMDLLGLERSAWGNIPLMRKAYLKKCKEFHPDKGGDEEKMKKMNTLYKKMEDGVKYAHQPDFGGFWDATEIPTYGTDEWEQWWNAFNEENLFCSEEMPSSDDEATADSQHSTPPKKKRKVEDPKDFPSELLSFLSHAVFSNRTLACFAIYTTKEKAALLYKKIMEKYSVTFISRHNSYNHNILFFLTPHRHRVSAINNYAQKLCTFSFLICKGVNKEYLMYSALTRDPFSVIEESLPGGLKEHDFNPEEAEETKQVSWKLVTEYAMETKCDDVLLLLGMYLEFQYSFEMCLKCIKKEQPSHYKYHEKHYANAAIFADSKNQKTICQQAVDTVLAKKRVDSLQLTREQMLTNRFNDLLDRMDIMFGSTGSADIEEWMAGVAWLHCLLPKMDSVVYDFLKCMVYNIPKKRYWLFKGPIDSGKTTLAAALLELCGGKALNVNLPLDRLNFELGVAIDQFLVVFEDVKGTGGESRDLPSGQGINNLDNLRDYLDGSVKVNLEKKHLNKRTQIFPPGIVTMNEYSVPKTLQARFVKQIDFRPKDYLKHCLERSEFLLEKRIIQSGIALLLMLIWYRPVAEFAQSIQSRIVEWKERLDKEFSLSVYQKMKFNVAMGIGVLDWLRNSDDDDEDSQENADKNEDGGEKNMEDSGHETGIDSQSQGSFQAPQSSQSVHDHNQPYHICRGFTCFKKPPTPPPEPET

Chain of Genome polyprotein (P29990 2492-3391 limits assumed): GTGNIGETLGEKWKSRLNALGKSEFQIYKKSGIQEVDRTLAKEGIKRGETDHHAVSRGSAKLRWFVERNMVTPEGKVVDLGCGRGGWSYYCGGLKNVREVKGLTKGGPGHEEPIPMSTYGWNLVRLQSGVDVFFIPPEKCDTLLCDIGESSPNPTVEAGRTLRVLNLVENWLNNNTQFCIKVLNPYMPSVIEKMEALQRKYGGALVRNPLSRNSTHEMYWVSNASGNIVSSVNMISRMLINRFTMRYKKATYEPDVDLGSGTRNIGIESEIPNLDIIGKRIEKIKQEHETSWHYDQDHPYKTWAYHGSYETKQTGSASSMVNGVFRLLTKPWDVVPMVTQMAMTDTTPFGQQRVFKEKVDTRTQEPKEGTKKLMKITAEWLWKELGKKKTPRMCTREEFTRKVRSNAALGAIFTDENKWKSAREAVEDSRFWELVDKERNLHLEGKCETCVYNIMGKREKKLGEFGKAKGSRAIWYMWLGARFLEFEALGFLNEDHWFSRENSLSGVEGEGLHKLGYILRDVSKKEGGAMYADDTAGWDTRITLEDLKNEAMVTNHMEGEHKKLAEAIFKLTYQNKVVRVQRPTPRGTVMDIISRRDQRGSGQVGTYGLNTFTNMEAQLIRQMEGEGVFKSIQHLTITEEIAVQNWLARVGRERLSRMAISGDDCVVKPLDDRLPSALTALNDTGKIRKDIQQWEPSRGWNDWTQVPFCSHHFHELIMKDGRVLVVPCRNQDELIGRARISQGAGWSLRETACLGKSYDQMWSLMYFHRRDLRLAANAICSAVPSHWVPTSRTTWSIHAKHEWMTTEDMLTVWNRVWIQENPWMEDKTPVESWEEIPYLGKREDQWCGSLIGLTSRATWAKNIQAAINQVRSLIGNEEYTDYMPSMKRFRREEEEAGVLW
Chain of FAD-linked sulfhydryl oxidase ALR (P55789 whole entry): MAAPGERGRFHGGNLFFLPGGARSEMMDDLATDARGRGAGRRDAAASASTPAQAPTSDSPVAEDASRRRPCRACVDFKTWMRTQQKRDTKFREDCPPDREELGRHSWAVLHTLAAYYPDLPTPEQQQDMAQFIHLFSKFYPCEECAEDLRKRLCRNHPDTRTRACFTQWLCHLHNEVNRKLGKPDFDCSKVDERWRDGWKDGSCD

Take `Cc1cc(C)cc(N(CC(=O)NCc2ccc3c(c2)OCO3)C(=O)CCC(=O)Nc2ccccn2)c1`: in [1], the EC50 was 2.74 µM (active).

With `CCc1ccc(/C=C2/SC(=S)N(CCC(=O)Nc3cccc(C(=O)O)c3)C2=O)cc1`, the IC50 in experiment [2] was > 80 µM (inactive).

For the molecule `CCCC(C(=O)NC1CCCC1)N(C(=O)Cn1nnc(-c2ccc(C)o2)n1)C1CCCC1` (stereo not given), the IC50 was 0.221 µM (active) in [3] and 45 µM (active) in experiment [4].

`O=C(Nc1nncs1)c1ccccc1Br`: the IC50 on Leucine aminopeptidase was 16 µM (active).

As to `Cc1sc(NC(=O)C2CCCCC2C(=O)O)c(C(N)=O)c1-c1ccc(C(C)C)cc1` (stereo not given), the IC50 at Genome polyprotein was 62.7 µM (active); on Leucine aminopeptidase, 7.2 µM (active).

As to `O=C(CCNc1ccc(Cl)c(C(F)(F)F)c1)c1ccco1`, in “cells”, the IC50 was 31 µM (active). The EC50 in experiment [1] was 9.96 µM (active).

With `COc1ccc(S(=O)(=O)N2CCC(C(=O)N3CCc4ccccc4C3)CC2)cc1C`, in experiment [1], the EC50 is 4.51 µM (active).

Regarding `CC(=O)Oc1ccc(-c2ccc(C(=O)NCCc3ccc(S(N)(=O)=O)cc3)cc2)cc1`, the IC50 in experiment [3] was 11.4 µM (active); in experiment [4] it was > 50 µM (inactive).

Regarding `CNCCOc1ccccc1-c1ccccc1`, the AC50 in [5] was > 20 µM (inactive).

`COc1ccc(CC(=O)Nc2cccc(-c3ccc4nnc(C)n4n3)c2)cc1`: in experiment [2], the IC50 is > 80 µM (inactive).

Turning to `Clc1cccc(Cl)c1OCCOCCNCc1ccccc1`, the IC50 in experiment [6] was > 80 µM (inactive).

In the case of `Cc1[nH]c2ccccc2c1C(=O)CN1C(=O)NC2(CC(C)CC(C)(C)C2)C1=O` (stereo not given), the IC50 in experiment [2] was 52.8 µM (inactive). The EC50 in experiment [7] is 22.3 µM (active); in experiment [8], 11.4 µM (active); in [9] it was 10.8 µM (active).

Regarding `CCOc1ccc(NC(=O)CN2C(=O)CSC(C)C2=O)cc1` (stereo not given), the IC50 on Leucine aminopeptidase was 1.21 µM (active).

On to `Cc1ccc2nc(O)c(CN(Cc3ccco3)C(=O)c3ccncc3)cc2c1`, for which the CC50 in experiment [10] is 13.5 µM (active).

For the molecule `Cc1cc2oc(C(=O)Nc3ccc(S(N)(=O)=O)cc3)c(C)c2cc1Cl`, the IC50 in experiment [3] is 6.72 µM (active); in [4], > 50 µM (inactive).

As for `O=C(CCCOc1ccccc1)N1CCN(c2ccc(F)cc2)CC1`, the EC50 in [1] was 4.49 µM (active).

For `NS(=O)(=O)c1ccc(-c2ccc(C=C3C(=O)c4ccccc4C3=O)o2)cc1`, the IC50 in [3] is > 56.8 µM (not active); in experiment [4] it was > 50 µM (inactive).

In the case of `CCOC(=O)c1[nH]c(C)c(C(=O)Nc2ccc(C)cc2C)c1C`, the IC50 in experiment [6] was > 80 µM (inactive).

With `Cc1nn(-c2c(Cl)cc(Cl)cc2Cl)c(=O)c2ccccc12`, the CC50 in [10] is 30.1 µM (active).

For `O=C(NC(=S)NNS(=O)(=O)c1ccccc1)c1cccnc1`, the EC50 in experiment [11] and in experiment [13] was > 300 µM (not active) each time. Moreover, the IC50 was 43.9 µM (active) at Leucine aminopeptidase, > 66 µM (inactive) in [12] and > 66 µM (inactive) in experiment [14].

As for `CCOc1ccc(N(C)S(=O)(=O)c2ccc(-c3cc(C)no3)s2)cc1`, the IC50 in experiment [6] was > 80 µM (inactive).

In the case of `COc1ccc([N+](=O)[O-])cc1CSc1nnc(NC(C)=O)s1`, in experiment [10], the CC50 is > 40 µM (active).

Consider `C/C(CC(=O)Nc1ccc2ccccc2c1)=N\NC(=O)c1ccc(O)c(O)c1`, for which the AC50 in [5] was 9.2 µM (active); in [15], 4.3 µM (active). The IC50 on Large T antigen is 14 µM (active).

Take `CCN(CC)CCC/N=C(\C)C1=C(O)c2ccccc2C1=O`: in [5], the AC50 was > 20 µM (inactive).

As for `COc1ccc(/C=N/N=C2\SC(CC(=O)O)C(=O)N2c2ccccc2)c(OC)c1` (stereo not given), the IC50 on Leucine aminopeptidase was 95.3 µM (active).
